# In patent US5723494A, “Derivatives of glutamic and aspartic acids, a method of preparing them, and their use as drugs for enhancing memory and learning” (priority 1993, dated 1998):
# Experiments:
# [1] = Antiamnesic activity in the mouse (step-down passive avoidance, amnesia induced by ECS); assay type: in vivo, mouse (CD1 male); conditions: mouse
# [2] = Memory-enhancement activity in the active avoidance test in the rat; assay type: in vivo, rat (male Wistar); conditions: for % variation vs controls, avoidance learning / % variation vs controls, avoidance memory / % variation vs controls, escape response / % variation vs controls, shock response / % variation vs controls, total avoidance response / Average % avoidance learning, last 10 TR / Average % avoidance memory, first 10 TR/40 TR / Average % escape response / Average % shock response / Average % total avoidance response, 40 trials: fifth day
# Excerpt: 3) Memory-enhancement activity in the "active avoidance" test in the rat
# Male Wistar rats which weighed about 200 g and had not fasted were used. The method consisted of making the animal understand that, in order to avoid a shock, it must go from one compartment of the equipment used (a shuttle box) to the other. For this reason it is defined as active avoidance (because the animal takes action to avoid the punishment).
# In this test it is also possible to discriminate between two different parameters: memory and learning.
# The equipment consisted of a cage divided into two portions by a wall with an opening at floor level to enable the animal to go from one portion of the cage to the other.
# The reinforcement, that is, the reason which forced the rat to become conditioned to the sound and to the light, consisted of an electrical stimulus coming from the grid floor of the cage (an Unconditioned stimulus). The floor of the cage was constituted by a metal grid for the passage of the current and could rock so that, each time the rat passed through the dividing hole, the floor tilted, due to its weight, interrupting the current.
# The test lasted for five days. On the first day, the animals were subjected to the first session of 40 cycles with an interval of 30 sec between cycles (duration of the session=20 minutes).
# For each 30 sec cycle, a light stimulus and a sound stimulus lasting for 3 seconds were applied, followed by the 0.4 mA shock, which also lasted for 3 sec.
# At the end of the first day, the rats were selected randomly in homogeneous groups and treated with the product under test or with physiological solutions (controls).
# On subsequent days, the rats underwent the first treatment 15 minutes before the session and the second treatment at the end of the day. In 5 days of tests the animal thus underwent 8 treatments in total.
# The 40 cycles were divided into 4 sessions each of 10 cycles for the 5 days' duration of the test.
# The performance of each animal was evaluated as: % shock response, % escape response; % total avoidance response (these refer to all 40 cycles of each day); memory, as % of the avoidance responses in the first session of each day (the first 10 cycles); learning: as % of avoidance responses in the fourth session of each day (the last 10 cycles).
# All the % were calculated on regression lines calculated on the basis of the responses obtained daily for each individual parameter, on the fifth (last) day of the experiment.
# The results are expressed as the percentage variation of the averages of the individual responses obtained for the treated groups in comparison with the control group. The results thus calculated are given in Table 3 below, which gives the statistical analysis between the treatment groups against the controls, carried out by analysis of the relative variance with respect to the overall results for the 5 days.
structure (smiles),measurement,setting,value
"CC1(C)CCC(NC(=O)[C@@H](N)CCC(=O)O)CC1 [Compound 23, 1-(4,4-dimethylcyclohexyl)-L-isoglutamine[4-amino-5-(4',4'-dimethylcyclohexylamine)-5-oxopentanoic acid (S)]]",Antiamnesic activity (in words),[1]; OS,particularly remarkable
same,change in vivo at 0.1 mg/kg,"[1]; po, 0.1 mg/kg OS, retest 24 h after training, read-out: Reversal of the amnesia (% vs controls), as the increase in the Step Down Latency",20%
same,change in vivo at 1 mg/kg,"[1]; po, 1 mg/kg OS, retest 24 h after training, read-out: Reversal of the amnesia (% vs controls), as the increase in the Step Down Latency",40%
same,change in vivo at 3 mg/kg,"[1]; po, 3 mg/kg OS, retest 24 h after training, read-out: Reversal of the amnesia (% vs controls), as the increase in the Step Down Latency",37%
same,change in vivo at 10 mg/kg,"[1]; po, 10 mg/kg OS, retest 24 h after training, read-out: Reversal of the amnesia (% vs controls), as the increase in the Step Down Latency",61%
same,change in vivo at 30 mg/kg,"[1]; po, 30 mg/kg OS, retest 24 h after training, read-out: Reversal of the amnesia (% vs controls), as the increase in the Step Down Latency",67%
same,ED50,"[1]; po, OS, 60 min before training, read-out: ID50 (antiamnesic activity, dose inhibiting the amnesic effect of the ECS by 50%)",4.6 mg/kg
same,"% variation vs controls, avoidance learning",[2]; 1 mg/kg i.p. 2/day,+17.2%
same,"% variation vs controls, avoidance memory",[2]; 1 mg/kg i.p. 2/day,-16.7%
same,"% variation vs controls, escape response",[2]; 1 mg/kg i.p. 2/day,-11.1%
same,"% variation vs controls, shock response",[2]; 1 mg/kg i.p. 2/day,-8.6%
same,"% variation vs controls, total avoidance response",[2]; 1 mg/kg i.p. 2/day,+33.3%
same,"Average % avoidance learning, last 10 TR",[2]; 1 mg/kg i.p. 2/day,34%
same,"Average % avoidance memory, first 10 TR/40 TR",[2]; 1 mg/kg i.p. 2/day,10%
same,Average % escape response,[2]; 1 mg/kg i.p. 2/day,8%
same,Average % shock response,[2]; 1 mg/kg i.p. 2/day,64%
same,"Average % total avoidance response, 40 trials",[2]; 1 mg/kg i.p. 2/day,26%
same,"% variation vs controls, avoidance learning",[2]; 3 mg/kg i.p. 2/day,+82.7%
same,"% variation vs controls, avoidance memory",[2]; 3 mg/kg i.p. 2/day,+142%
same,"% variation vs controls, escape response",[2]; 3 mg/kg i.p. 2/day,+144%
same,"% variation vs controls, shock response",[2]; 3 mg/kg i.p. 2/day,-51.4%
same,"% variation vs controls, total avoidance response",[2]; 3 mg/kg i.p. 2/day,+109%
same,"Average % avoidance learning, last 10 TR",[2]; 3 mg/kg i.p. 2/day,53%
same,"Average % avoidance memory, first 10 TR/40 TR",[2]; 3 mg/kg i.p. 2/day,29%
same,Average % escape response,[2]; 3 mg/kg i.p. 2/day,22%
same,Average % shock response,[2]; 3 mg/kg i.p. 2/day,34%
same,"Average % total avoidance response, 40 trials",[2]; 3 mg/kg i.p. 2/day,44%
same,"% variation vs controls, avoidance learning",[2]; 10 mg/kg i.p. 2/day,+145%
same,"% variation vs controls, avoidance memory",[2]; 10 mg/kg i.p. 2/day,+183%
same,"% variation vs controls, escape response",[2]; 10 mg/kg i.p. 2/day,+241%
same,"% variation vs controls, shock response",[2]; 10 mg/kg i.p. 2/day,-81.4%
same,"% variation vs controls, total avoidance response",[2]; 10 mg/kg i.p. 2/day,+166%
same,"Average % avoidance learning, last 10 TR",[2]; 10 mg/kg i.p. 2/day,71%
same,"Average % avoidance memory, first 10 TR/40 TR",[2]; 10 mg/kg i.p. 2/day,34%
same,Average % escape response,[2]; 10 mg/kg i.p. 2/day,31%
same,Average % shock response,[2]; 10 mg/kg i.p. 2/day,13%
same,"Average % total avoidance response, 40 trials",[2]; 10 mg/kg i.p. 2/day,56%
same,Shock responses (in words),"[2]; rat, i.p.",greatly reduced
same,Total avoidance responses (in words),"[2]; rat, i.p.",significantly increases the total avoidance responses in a dose-dependent manner
